These are literature values, as cited in PMC12007609 (International Journal of Nanomedicine, 2025).

The data set relates to GLUT2. Particulars: GLUT2 transport.

Structures are written as SMILES.

With `O=C[C@H](O)[C@@H](O)[C@@H](O)[C@H](O)CO` [galactose], the Km is around 92 mM.

Consider `O=C(CO)[C@@H](O)[C@H](O)[C@H](O)CO` [fructose], for which the Michaelis-Menten constant (Km) was around 76 mM.

On to `OC[C@H]1OC(O)[C@H](O)[C@@H](O)[C@@H]1O` (stereo partly drawn) [glucose], for which the Km is around 17 mM.
